Ten molecules from patent US20120214802A1, “PYRROLIDINE COMPOUNDS WHICH INHIBIT BETA-SECRETASE ACTIVITY AND METHODS OF USE THEREOF” (priority 2009, published 2012) can be followed below.

Where “and” joins values, the source holds several entries; their conditions need not be identical. Equal entries are not always repeated. Where two headings read alike, the source gives them in different places. Where only a bound is given, the exact number is not on record here.

For orientation: IC50 means the concentration that gives 50% inhibition.

The target of data set [1] is memapsin 2 (Homo sapiens, UniProt P56817). Put plainly: Inhibition of memapsin 2 beta-secretase activity (fluorogenic substrate FS-2). It is filed as biochemical. To be noted: pH 4, 37° C., read-out: M2 Ki. An outline of the steps:
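Memapsin 2 pre-incubated with compound for 20 min at pH 4, 37° C. Reaction started with fluorogenic substrate FS-2, […], derived from Swedish-variant APP beta-secretase site; inhibition measured from fluorescence.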

Data set [2] deals with T1, memapsin 2 (Cricetulus griseus, UniProt G3IAK4).
T1 construct: endogenous in cells; host or cells: Chinese hamster ovary cells over-expressing human APP695 (London + Swedish)
Put plainly: Cellular Aβ IC50 determination (Aβ40 sandwich ELISA). It is filed as cell-based, Chinese hamster. To be noted: CHO cells over-expressing human APP695 with London and Swedish mutations, 24 h, read-out: M2 IC50. Put shortly:
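CHO cells overexpressing human APP695 (London and Swedish mutations) treated 48 h post-seeding with serially diluted compounds (top near 4 μM, 0.4% DMSO), 24 h at 37° C, 5% CO2. Medium Aβ40 measured by sandwich ELISA; levels relative to control fitted to 4-parameter IC50 model.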
(In general: In an ELISA, binding on a coated surface is turned into a signal by an enzyme label.)

The target of another data set is T2, CYP3A4 (Homo sapiens, UniProt P08684).
T2 construct: host or cells: human liver microsomes
Put plainly: CYP3A4 inhibition (midazolam metabolism in human liver microsomes). It is filed as in vitro ADME. To be noted: substrate midazolam. Here is the method:
To evaluate the drug-drug interaction potential for compounds, the potency to inhibit the major metabolic cytochrome CYP450 isoform 3A4 was assessed. The inhibition constant Ki was determined for inhibition of the metabolism of midazolam, a CYP3A4 substrate.
CYP3A4 Ki assays were performed following a recently published protocol with slight modifications (Di, L., Kerns, E. H., Li, S. Q., and Carter, G. T. (2007) Comparison of cytochrome P450 inhibition assays for drug discovery using human liver microsomes with LC-MS, rhCYP450 isozymes with fluorescence, and double cocktail with LC-MS. International Journal of Pharmaceutics 335: 1-11). The P450 inhibition assay was performed in 96-well plates at 37.2° C. in a shaking incubator. The compounds were diluted from 5 mM stocks in 100% DMSO and incubated at seven final concentrations from 0.078 to 10 μM (0.1% DMSO in each final incubation), with human liver microsomes (HLM) at a final protein concentration of 0.1 mg/mL protein and a substrate concentration ranging from 1.25 to 10 μM.
The assay was standardized for both phosphate buffer (100 mM, pH 7.4) and the NADPH regenerating system (MgCl2, 3.3 mM; G6P, 3.3 mM; G6PD, 1 U/ml; NADP+, 1.3 mM). Eight replicate control samples (0.1% DMSO, no compound) were prepared. Assays (200 μL) were set up by mixing HLM+substrate stock, 10 μL of test article in 2% DMSO, and the substrate before initiating the reaction with the addition of the regenerating system mixture. Reactions were quenched following incubation for 20, 30 and 40 minutes as described following.
After incubation for the specified time in a humidified shaking incubator, 20 μL of the reaction mixture was removed and the reactions were terminated by adding 200 μL of cold acetonitrile. Samples were centrifuged at 1000×g for 15 minutes in Solvinert filter plate. The receptor plate was dried via speed vacuum at 40° C. The sample was reconstituted with a reconstitution buffer composed of 10% acetonitrile, 10% DMSO, 80% H2O with an internal standard added at a concentration of 100 ng/ml. MS-Analysis was completed using LC-MS/MS. Formation of 1′-hydroxymidazolam was measured by monitoring a specific SRM (342>203) transition for the CYP3A4 metabolite.
Data were expressed as the relative quantity of midazolam metabolite relative to control incubations. Initial velocities were obtained by multiplying the relative quantity by the initial substrate concentration and dividing by the incubation duration. Data were transformed to inverse of inivital velocity and expressed vs. inhibitor concentration [I] for determination of Ki by the Dixon method (Dixon, M. (1953) Biochemical Journal 55: 170-171) using where intercept [I]=−Ki was determined at multiple substrate concentrations.

A short description of data set [3]: Hepatic intrinsic clearance in liver microsomes. It is filed as in vitro ADME. To be noted: human, pH 7.4, human liver microsomes. Here is the method:
To 500 μl of 200 mM Na^+K^+phosphate buffer (pH 7.4), 100 μl of 1 mM EDTA solution was added followed by 100 μl of 2 mg protein/ml human liver microsomes. A 10 μl aliquot of test compound (20 mM stock in 50% acetonitrile) was diluted further with 40 μl of H2O (total assay volume […]. Assay mixture is incubated for 5 minutes at 37° C. The assay was initiated by addition of 250 μl of 4 mM NADPH solution. Incubation was continued at 37° C. Separate reaction mixtures were prepared for 0, 5, 10, 20, and 30 min durations. Individual reactions were halted by addition of 150 μl of 100% acetonitrile. Internal standard (10 μl of 100 ng/ml diazepam solution) was added. Concentration of the test compound in each separate reaction was measured using LC/MS/MS and a standard curve for the test compound according to standard procedures.
The hepatic intrinsic clearance in liver microsome was determined by the following procedure described by Davies and Morris (Davies, B. and Morris, T. (19930) Physiological parameters in laboratory animals and humans. Pharm Res. 10:1093-1095) detailing the relationship of in vitro clearance to physiological parameters in animals and human subjects.
The amount of compound remaining at each time point was expressed relative to the amount present in the initial (0 min) incubation. The relationship of relative amount vs. time was used to determine the half life of the compound in the microsome assay. The concentration independent rate constant, k1, was determined from rectangular hyperbolic fit:
where T is time (in minutes), from the relationship of relative amount vs. time. Alternatively, k1 was determined from a transform of the equation, where
Conversion to in vivo clearance was obtained from the relation (Davies and Morris, 1993):
where v=velocity of metabolism, [S] is the concentration of the compound, and volumes are expressed in mL.
A general note: Liver microsomes are vesicles of endoplasmic reticulum, rich in cytochrome P450 enzymes.

Setting [4] is: in vitro clearance, read-out: HLM CL.

Chain of memapsin 2 (Homo sapiens, UniProt P56817) (P56817 46-501): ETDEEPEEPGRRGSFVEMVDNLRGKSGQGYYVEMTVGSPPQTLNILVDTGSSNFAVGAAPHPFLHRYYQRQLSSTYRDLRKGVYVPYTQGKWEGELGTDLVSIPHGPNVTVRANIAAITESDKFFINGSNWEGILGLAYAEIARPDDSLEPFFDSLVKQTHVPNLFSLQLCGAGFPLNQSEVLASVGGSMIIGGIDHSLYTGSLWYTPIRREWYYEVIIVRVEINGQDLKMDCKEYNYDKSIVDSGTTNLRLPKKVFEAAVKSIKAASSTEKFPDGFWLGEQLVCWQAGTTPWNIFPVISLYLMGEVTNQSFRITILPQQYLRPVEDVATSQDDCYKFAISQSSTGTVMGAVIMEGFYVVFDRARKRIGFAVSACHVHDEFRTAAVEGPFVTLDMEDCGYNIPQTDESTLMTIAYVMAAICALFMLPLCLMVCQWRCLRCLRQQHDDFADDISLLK
T2 sequence (P08684 whole entry): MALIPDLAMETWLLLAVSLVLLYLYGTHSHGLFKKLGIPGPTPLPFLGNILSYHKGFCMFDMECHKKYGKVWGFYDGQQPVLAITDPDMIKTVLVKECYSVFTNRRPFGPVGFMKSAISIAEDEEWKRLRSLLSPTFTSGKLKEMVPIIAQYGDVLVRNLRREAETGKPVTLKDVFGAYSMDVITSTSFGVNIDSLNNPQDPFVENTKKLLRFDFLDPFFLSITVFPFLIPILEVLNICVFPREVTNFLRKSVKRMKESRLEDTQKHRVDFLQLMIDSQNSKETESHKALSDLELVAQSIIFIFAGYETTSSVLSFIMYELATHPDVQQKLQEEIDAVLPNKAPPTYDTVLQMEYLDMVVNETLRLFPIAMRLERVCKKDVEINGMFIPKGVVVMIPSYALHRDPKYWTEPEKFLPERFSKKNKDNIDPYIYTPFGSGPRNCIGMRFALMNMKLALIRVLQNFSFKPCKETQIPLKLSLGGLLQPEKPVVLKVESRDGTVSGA
T1 sequence (G3IAK4 22-501): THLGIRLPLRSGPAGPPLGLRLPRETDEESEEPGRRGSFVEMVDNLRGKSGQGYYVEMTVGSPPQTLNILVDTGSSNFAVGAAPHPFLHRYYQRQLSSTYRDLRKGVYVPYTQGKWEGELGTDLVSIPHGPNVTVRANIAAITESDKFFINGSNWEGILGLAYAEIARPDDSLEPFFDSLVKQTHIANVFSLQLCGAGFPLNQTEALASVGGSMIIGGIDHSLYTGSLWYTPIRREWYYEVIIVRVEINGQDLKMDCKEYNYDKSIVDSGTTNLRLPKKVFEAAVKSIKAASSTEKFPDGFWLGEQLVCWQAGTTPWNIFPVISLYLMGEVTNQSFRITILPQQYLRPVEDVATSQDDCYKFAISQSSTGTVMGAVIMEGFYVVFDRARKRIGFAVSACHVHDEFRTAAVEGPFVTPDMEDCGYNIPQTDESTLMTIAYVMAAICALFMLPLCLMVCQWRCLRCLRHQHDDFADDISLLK

Take `Cc1csc([C@H]2CCCN2C(=O)c2cc(C(=O)N[C@@H](Cc3ccccc3)[C@H](O)CNCc3cncc(C(C)C)c3)cc(-c3ccco3)c2)n1` [2-2, 3-(furan-2-yl)-N-((2S,3R)-3-hydroxy-4-((5-isopropylpyridin-3-yl)methylamino)-1-phenylbutan-2-yl)-5-((R)-2-(4-methylthiazol-2-yl)pyrrolidine-1-carbonyl)benzamide, reference compound]: the values for the Ki on memapsin 2 [1] and at CYP3A4 (read-out: CYP 3A4Ki) were less than 250 nM and less than 1000 nM, respectively. Also, at memapsin 2 [2], the IC50 was less than 500 nM. The CLint scaled at 200 μM in data set [3] (setting [4]) is more than 700 mL/min/kg.
For `Cc1csc([C@H]2CCCN2C(=O)c2cc(C(=O)N[C@@H](Cc3ccccc3)[C@H](O)[C@H]3CCCN3)cc(-n3cccc3)c2)n1` [1-16, N-((1R,2S)-1-hydroxy-3-phenyl-1-((R)-pyrrolidin-2-yl)propan-2-yl)-3-((R)-2-(4-methylthiazol-2-yl)pyrrolidine-1-carbonyl)-5-(1H-pyrrol-1-yl)benzamide], in that order: less than 250 nM, 1000 to 5000 nM, 500 to 1000 nM and less than 400 mL/min/kg.
The like results for `Cc1csc(CN(C)C(=O)c2cccc(C(=O)N[C@@H](Cc3ccccc3)[C@H](O)[C@H]3C[C@@H](OCc4ccccc4)CN3)c2)n1` [1-9, N1-((1R,2S)-1-((2R,4R)-4-(benzyloxy)pyrrolidin-2-yl)-1-hydroxy-3-phenylpropan-2-yl)-N3-methyl-N3-((4-methylthiazol-2-yl)methyl)isophthalamide] were, in that order, less than 250 nM, 1000 to 5000 nM, less than 500 nM and less than 400 mL/min/kg.
The like results for `Cc1csc(CN(C)C(=O)c2cc(C(=O)N[C@@H](Cc3ccccc3)[C@H](O)[C@H]3CCCN3)cc(-n3cccc3)c2)n1` [1-13, N1-((1R,2S)-1-hydroxy-3-phenyl-1-((R)-pyrrolidin-2-yl)propan-2-yl)-N3-methyl-N3-((4-methylthiazol-2-yl)methyl)-5-(1H-pyrrol-1-yl)isophthalamide] were, in that order, less than 250 nM, 5000 to 10000 nM, 500 to 1000 nM and less than 400 mL/min/kg.
On to `CCn1cc(CNC[C@@H](O)[C@H](Cc2ccccc2)NC(=O)c2cc(C)cc(C(=O)N3CCC[C@@H]3c3nc(C)co3)c2)cn1` [2-5, N-((2S,3R)-4-((1-ethyl-1H-pyrazol-4-yl)methylamino)-3-hydroxy-1-phenylbutan-2-yl)-3-methyl-5-((R)-2-(4-methyloxazol-2-yl)pyrrolidine-1-carbonyl)benzamide, reference compound], for which the Ki was less than 250 nM at memapsin 2 [1] and 1000 to 5000 nM on CYP3A4 (read-out: CYP 3A4Ki). Also, on memapsin 2 [2], the IC50 was less than 500 nM. Moreover, the CLint scaled at 200 μM in data set [3] (setting [4]) was more than 700 mL/min/kg.
As to `Cc1cc(C(=O)N[C@@H](Cc2ccccc2)[C@H](O)[C@H]2CCCN2)cc(C(=O)N2CCC[C@@H]2c2nc(C)co2)c1` [1-8, N-((1R,2S)-1-hydroxy-3-phenyl-1-((R)-pyrrolidin-2-yl)propan-2-yl)-3-methyl-5-((R)-2-(4-methyloxazol-2-yl)pyrrolidine-1-carbonyl)benzamide], the values for the Ki on memapsin 2 [1] and on CYP3A4 (read-out: CYP 3A4Ki) were 250 to 750 nM and more than 10000 nM, respectively. Also, the IC50 on memapsin 2 [2] was more than 1000 nM. Besides, the CLint scaled at 200 μM in data set [3] (setting [4]) was less than 400 mL/min/kg.
`Cc1csc([C@H]2CCCN2C(=O)c2cc(C(=O)N[C@@H](Cc3ccccc3)[C@H](O)[C@H]3CCCN3)cc(C(F)F)c2)n1` [1-14, 3-(difluoromethyl)-N-((1R,2S)-1-hydroxy-3-phenyl-1-((R)-pyrrolidin-2-yl)propan-2-yl)-5-((R)-2-(4-methylthiazol-2-yl)pyrrolidine-1-carbonyl)benzamide]: the Ki was less than 250 nM at memapsin 2 [1] and 1000 to 5000 nM on CYP3A4 (read-out: CYP 3A4Ki). Moreover, the IC50 on memapsin 2 [2] is less than 500 nM. In addition, in data set [3] (setting [4]), the CLint scaled at 200 μM was less than 400 mL/min/kg.
Regarding `Cc1coc([C@H]2CCCN2C(=O)c2cccc(C(=O)N[C@@H](Cc3ccccc3)[C@H](O)[C@H]3C[C@@H](OCc4ccccc4)CN3)c2)n1` [1-18, N-((1R,2S)-1-((2R,4R)-4-(benzyloxy)pyrrolidin-2-yl)-1-hydroxy-3-phenylpropan-2-yl)-3-((R)-2-(4-methyloxazol-2-yl)pyrrolidine-1-carbonyl)benzamide], the Ki at memapsin 2 [1] was ~50.4 nM and < 250 nM and 50.4 nM; at CYP3A4, 11500 nM; on CYP3A4 (read-out: CYP 3A4Ki), more than 10000 nM. Besides, at memapsin 2 [2], the IC50 is less than 500 nM. Moreover, the values for the CLint scaled at 200 μM in data set [3] (setting [4]) and in data set [3] (read-out: hepatic intrinsic clearance in liver microsomes (HLMCL)) were less than 400 mL/min/kg and approximately 337 mL/min/kg, respectively.
Regarding `Cc1csc(CN(C)C(=O)c2cccc(C(=O)N[C@@H](Cc3cc(F)cc(F)c3)[C@H](O)[C@H]3CCCN3)c2)n1` [1-41, N1-((1R,2S)-3-(3,5-difluorophenyl)-1-hydroxy-1-((R)-pyrrolidin-2-yl)propan-2-yl)-N3-methyl-N3-((4-methylthiazol-2-yl)methyl)isophthalamide], the Ki is less than 250 nM on memapsin 2 [1] and more than 10000 nM at CYP3A4 (read-out: CYP 3A4Ki). Also, on memapsin 2 [2], the IC50 is more than 1000 nM. Also, the CLint scaled at 200 μM in data set [3] (setting [4]) is less than 400 mL/min/kg.
In the case of `Cc1coc([C@H]2CCCN2C(=O)c2cc(C(=O)N[C@@H](Cc3ccccc3)[C@H](O)[C@H]3CCCN3)cc(-c3ncco3)c2)n1` [1-17, N-((1R,2S)-1-hydroxy-3-phenyl-1-((R)-pyrrolidin-2-yl)propan-2-yl)-3-((R)-2-(4-methyloxazol-2-yl)pyrrolidine-1-carbonyl)-5-(oxazol-2-yl)benzamide], the Ki on memapsin 2 [1] was less than 250 nM; at CYP3A4 (read-out: CYP 3A4Ki), more than 10000 nM. The half-maximal inhibitory concentration (IC50) on memapsin 2 [2] was less than 500 nM. Besides, in data set [3] (setting [4]), the CLint scaled at 200 μM is less than 400 mL/min/kg.
